{"source": "ChEMBL document CHEMBL4418304", "about": "“Combinations for the treatment of kidney stones” (2017)", "key": {"[1]": {"biological_target": "T1, Hydroxyproline dehydrogenase (Homo sapiens, UniProt Q9UF12)", "T1 sequence (Q9UF12 whole entry)": "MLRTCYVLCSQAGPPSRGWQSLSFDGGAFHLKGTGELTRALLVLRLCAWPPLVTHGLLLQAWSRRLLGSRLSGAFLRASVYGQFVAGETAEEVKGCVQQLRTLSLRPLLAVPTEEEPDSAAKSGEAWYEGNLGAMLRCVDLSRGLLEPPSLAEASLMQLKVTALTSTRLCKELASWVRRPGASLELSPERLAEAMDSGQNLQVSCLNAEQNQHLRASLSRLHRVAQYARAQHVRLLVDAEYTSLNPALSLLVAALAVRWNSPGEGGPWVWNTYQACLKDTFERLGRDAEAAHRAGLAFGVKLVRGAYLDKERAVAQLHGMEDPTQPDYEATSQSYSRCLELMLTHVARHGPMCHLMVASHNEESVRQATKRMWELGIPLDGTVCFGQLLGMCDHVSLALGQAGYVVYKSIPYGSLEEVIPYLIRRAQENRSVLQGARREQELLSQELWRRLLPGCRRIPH", "assay": "Inhibition of recombinant human HYPDH expressed in Escherichia coli using hydroxyproline as substrate preincubated for 5 mins followed by substrate addition in presence of FAD as cofactor"}, "2-Hydroxyacid oxidase 1": {"biological_target": "T2, 2-Hydroxyacid oxidase 1 (Homo sapiens, UniProt Q9UJM8)", "T2 sequence (Q9UJM8 whole entry)": "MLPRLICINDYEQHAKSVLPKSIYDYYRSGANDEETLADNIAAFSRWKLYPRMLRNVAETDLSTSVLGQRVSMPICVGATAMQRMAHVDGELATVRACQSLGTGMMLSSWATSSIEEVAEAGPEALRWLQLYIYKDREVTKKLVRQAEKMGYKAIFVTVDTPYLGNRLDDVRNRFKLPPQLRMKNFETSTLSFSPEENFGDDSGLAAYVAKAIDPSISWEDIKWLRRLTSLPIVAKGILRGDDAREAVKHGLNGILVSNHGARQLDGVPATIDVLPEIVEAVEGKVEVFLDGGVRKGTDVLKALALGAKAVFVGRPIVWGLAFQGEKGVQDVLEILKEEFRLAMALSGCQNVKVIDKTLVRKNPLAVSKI", "assay": "Inhibition of recombinant human liver HAOX1 using glycolate as substrate preincubated for 5 mins followed by substrate addition in presence of […]"}}, "data": [{"smiles": "O=C(O)[C@H]1CC[C@H](O)C1", "values": [{"measurement": "IC50", "setting": "[1]; read-out: IC50", "value": 600, "unit": "µM"}]}, {"smiles": "O=C(O)c1cc(O)cs1", "values": [{"measurement": "IC50", "setting": "[1]; read-out: IC50", "value": "< 1000", "unit": "µM"}]}, {"smiles": "CCCCCCCCCCCCSc1[nH]nnc1C(=O)O", "values": [{"measurement": "Ki", "setting": "2-Hydroxyacid oxidase 1", "value": 0.015, "unit": "µM"}]}, {"smiles": "O=C(O)[C@@H]1CC(O)(O)CS1", "values": [{"measurement": "IC50", "setting": "[1]; read-out: IC50", "value": 290, "unit": "µM"}]}, {"smiles": "O=C(O)C[C@H]1CC[C@H](O)C1", "values": [{"measurement": "IC50", "setting": "[1]; read-out: IC50", "value": 480, "unit": "µM"}]}, {"smiles": "O=C(O)[C@@H]1C[C@@H](O)CS1", "values": [{"measurement": "IC50", "setting": "[1]; read-out: IC50", "value": 330, "unit": "µM"}]}, {"smiles": "O=C(O)c1ccco1", "values": [{"measurement": "IC50", "setting": "[1]", "value": "Nd(Insoluble)"}]}, {"smiles": "O=C(O)C1=NN=C(O)C1", "values": [{"measurement": "IC50", "setting": "[1]; read-out: IC50", "value": 2900, "unit": "µM"}]}, {"smiles": "O=C(O)[C@@H]1C[C@H](O)CS1", "values": [{"measurement": "IC50", "setting": "[1]; read-out: IC50", "value": 370, "unit": "µM"}]}, {"smiles": "O=C(O)C1CCCO1", "note": "(stereo unspecified)", "values": [{"measurement": "IC50", "setting": "[1]; read-out: IC50", "value": 1500, "unit": "µM"}]}, {"smiles": "O=C(O)[C@H]1CC[C@@H](O)C1", "values": [{"measurement": "IC50", "setting": "[1]; read-out: IC50", "value": "> 10000", "unit": "µM"}]}, {"smiles": "O=C1CC[C@@H](C(=O)O)C1", "values": [{"measurement": "IC50", "setting": "[1]; read-out: IC50", "value": 370, "unit": "µM"}]}, {"smiles": "O=C(O)[C@@H]1CC[C@@H](O)C1", "values": [{"measurement": "IC50", "setting": "[1]; read-out: IC50", "value": 2100, "unit": "µM"}]}, {"smiles": "N[C@H]1CC[C@H](C(=O)O)C1", "values": [{"measurement": "IC50", "setting": "[1]; read-out: IC50", "value": 630, "unit": "µM"}]}, {"smiles": "O=C1CC[C@H](C(=O)O)C1", "values": [{"measurement": "IC50", "setting": "[1]; read-out: IC50", "value": 380, "unit": "µM"}]}, {"smiles": "O=C1CS[C@H](C(=O)O)C1", "values": [{"measurement": "IC50", "setting": "[1]; read-out: IC50", "value": 320, "unit": "µM"}]}]}
